In patent publication US9221868B2, “Uridine di- or tri-phosphate derivatives and uses thereof” (BAR-ILAN UNIVERSITY, priority 2010, dated 2015):
Several values for one entry are separate records, joined by “and”; a condition that tells them apart may be missing. Equal entries are not always repeated.

Legend:
[1] = target: T1, human NPP1 (Homo sapiens, UniProt P22413); experiment: Hydrolysis by NPP1 (HPLC); type: in vitro ADME; conditions: 2 h at 37° C., pH 8.5
T1 construct: Center of Research in Rheumatology and Immunology, Laval University (Québec, Canada), provided and not purchased
T1 sequence (P22413 1-925): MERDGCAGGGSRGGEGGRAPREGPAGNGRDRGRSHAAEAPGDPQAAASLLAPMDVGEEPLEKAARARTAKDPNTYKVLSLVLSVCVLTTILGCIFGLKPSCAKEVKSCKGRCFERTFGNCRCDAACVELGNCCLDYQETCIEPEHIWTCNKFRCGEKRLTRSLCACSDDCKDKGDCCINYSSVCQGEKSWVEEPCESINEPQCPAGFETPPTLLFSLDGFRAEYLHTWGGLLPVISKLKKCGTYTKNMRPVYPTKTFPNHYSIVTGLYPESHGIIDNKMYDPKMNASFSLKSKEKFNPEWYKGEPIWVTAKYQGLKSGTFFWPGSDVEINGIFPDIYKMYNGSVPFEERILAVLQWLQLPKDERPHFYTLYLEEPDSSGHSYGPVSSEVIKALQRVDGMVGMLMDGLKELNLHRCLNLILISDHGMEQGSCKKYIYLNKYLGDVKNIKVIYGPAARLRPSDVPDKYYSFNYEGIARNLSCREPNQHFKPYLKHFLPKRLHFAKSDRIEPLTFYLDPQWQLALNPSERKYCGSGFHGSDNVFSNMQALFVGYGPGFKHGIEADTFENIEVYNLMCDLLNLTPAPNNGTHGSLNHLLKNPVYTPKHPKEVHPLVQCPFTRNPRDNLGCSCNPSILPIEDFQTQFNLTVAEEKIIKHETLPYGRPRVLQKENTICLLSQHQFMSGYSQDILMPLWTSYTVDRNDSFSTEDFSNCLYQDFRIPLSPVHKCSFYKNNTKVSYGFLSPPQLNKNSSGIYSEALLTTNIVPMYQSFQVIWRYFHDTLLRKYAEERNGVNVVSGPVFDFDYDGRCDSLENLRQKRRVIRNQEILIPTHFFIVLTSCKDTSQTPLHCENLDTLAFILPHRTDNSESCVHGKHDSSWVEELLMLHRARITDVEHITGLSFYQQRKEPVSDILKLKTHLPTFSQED
Experimental: (§1) All stability experiments were performed in duplicates.
(§2) In this study, the hydrolysis rate of analogue 13A as compared to UDP and analogue 12, by human NPP1 and NPP3 after incubation at 37° C. in appropriate buffer, was determined.
(§3) 56.15 μg or 57.78 μg of human NPP1 or NPP3 extract, respectively, was added to 0.575 ml the incubation mixture (1 mM […], 200 mM NaCl, 10 mM KCl and 100 mM Tris, pH 8.5) and preincubated at 37° C. for 3 min. Reaction was initiated by the addition of 0.015 ml of 4 mM of UDP, 12 or 13A. The reaction was stopped after incubation of 2 h or 3 h with NPP1 or NPP3, respectively, by transferring a 0.1 ml aliquot from the reaction mixture to 0.350 ml ice-cold 1 M perchloric acid. These samples were centrifuged for 1 min at 10000×g. Supernatants were neutralized with 1 M KOH in 4° C. and centrifuged 1 min at 10000×g. The reaction mixture was filtered and freeze-dried.

[2] = Stability in human blood serum (HPLC); conditions: for half-life at 0.14 mg/ml: human, human blood serum diluted in RPMI-1640
Experimental: Human blood serum was obtained from a blood bank (Tel-Hashomer Hospital, Israel). All stability experiments were performed in duplicates.
The assay mixture containing 0.1 mg each analogue in deionized water (4.5 μl), human blood serum (180 μl) and RPMI-1640 medium (540 μl) (Eliahu et al., 2010a) was incubated at 37° C. for 0-24 h. At 0.5-12 h intervals, each sample was heated to 80° C. for 30 min, treated with CM Sephadex (1-2 mg), shaken for 2 h and centrifuged for 6 min (12000 rpm), and the aqueous layer was collected and extracted with chloroform (2×500 μl). The aqueous layer was freeze-dried and then dissolved in deionized water (100 μl). Samples were loaded onto an activated Starta X-AW weak anion exchange cartridge, washed with H2O (1 ml) and eluted with MeOH:H2O (1:1, 1 ml) followed by NH4OH:MeOH:H2O (2:25:73, 1 ml), and then freeze-dried. The resulting residue was analyzed by HPLC on a Gemini analytical column (5μ C-18 557 110 A; 150 mm×4.60 mm), using gradient elution with solvent system I (for UDP and 12—A:B 96:4 over 10 min) or II (for uridine-5′-O-(α-borano diphosphate) and 13A—A:B 97.5:2.5 over 10 min) at a flow rate of 1 ml/min. […] The percentage of compound degradation was calculated vs. control, to take into consideration the degradation of the compounds due to the work up following the enzymatic reaction. Therefore, each of the samples was compared to a control which was put through the same workup, but to which no serum was added. The percentage of degradation was calculated from the area under the curve of the nucleoside monophosphate peak, after subtraction of the control, which is the amount of the nucleoside monophosphate peak formed due to chemical hydrolysis.

[3] = physchem; conditions: for Half-life (t1/2) of hydrolysis at pH 1.4 / half-life: buffer, pH 1.4; for Rate constant of phosphate ester hydrolysis at pH 1.4: pH 1.4, 37° C., pseudo-first-order
Experimental: as §1
The stability of UDP, 11, 12 and 13A in a buffer solution (pH 1.4) was evaluated by ^31P NMR at 37° C. for monitoring possible dephosphorylation products (the signal of the phosphate hydrolysis products is at ˜0 ppm, while that of the borano phosphate analogues is at ˜85 ppm). NMR spectra were recorded on a Bruker DMX-600 spectrometer with a ^31P NMR probe (isotope frequency of 240 MHz) using 85% H3PO4 as an external reference.
Sodium salts of UDP, 11, 12 and 13A were dissolved in 0.45 ml of KCl/HCl buffer (pH 1.4) and D2O (0.05 ml) was added. The final pH was adjusted to pH 1.4. pH measurements were performed with an Metrohm pH electrode and a Metrohm 827 meter. Spectra were recorded at 15 min, 1 h, or 24 h time intervals at 37° C. For experiments that were several days long, the solution was kept in an oil bath at 37° C. and spectra were recorded at ca. 24 h time intervals. The phosphate ester hydrolysis rate was determined by measuring the change of the integration of one of the phosphates signals of the starting material with time.

[4] = target: T2, human NPP3 (Homo sapiens, UniProt O14638); experiment: Hydrolysis by NPP3 (HPLC); type: in vitro ADME; conditions: 3 h at 37° C., pH 8.5
T2 construct: Center of Research in Rheumatology and Immunology, Laval University (Québec, Canada), provided and not purchased
T2 sequence (O14638 1-875): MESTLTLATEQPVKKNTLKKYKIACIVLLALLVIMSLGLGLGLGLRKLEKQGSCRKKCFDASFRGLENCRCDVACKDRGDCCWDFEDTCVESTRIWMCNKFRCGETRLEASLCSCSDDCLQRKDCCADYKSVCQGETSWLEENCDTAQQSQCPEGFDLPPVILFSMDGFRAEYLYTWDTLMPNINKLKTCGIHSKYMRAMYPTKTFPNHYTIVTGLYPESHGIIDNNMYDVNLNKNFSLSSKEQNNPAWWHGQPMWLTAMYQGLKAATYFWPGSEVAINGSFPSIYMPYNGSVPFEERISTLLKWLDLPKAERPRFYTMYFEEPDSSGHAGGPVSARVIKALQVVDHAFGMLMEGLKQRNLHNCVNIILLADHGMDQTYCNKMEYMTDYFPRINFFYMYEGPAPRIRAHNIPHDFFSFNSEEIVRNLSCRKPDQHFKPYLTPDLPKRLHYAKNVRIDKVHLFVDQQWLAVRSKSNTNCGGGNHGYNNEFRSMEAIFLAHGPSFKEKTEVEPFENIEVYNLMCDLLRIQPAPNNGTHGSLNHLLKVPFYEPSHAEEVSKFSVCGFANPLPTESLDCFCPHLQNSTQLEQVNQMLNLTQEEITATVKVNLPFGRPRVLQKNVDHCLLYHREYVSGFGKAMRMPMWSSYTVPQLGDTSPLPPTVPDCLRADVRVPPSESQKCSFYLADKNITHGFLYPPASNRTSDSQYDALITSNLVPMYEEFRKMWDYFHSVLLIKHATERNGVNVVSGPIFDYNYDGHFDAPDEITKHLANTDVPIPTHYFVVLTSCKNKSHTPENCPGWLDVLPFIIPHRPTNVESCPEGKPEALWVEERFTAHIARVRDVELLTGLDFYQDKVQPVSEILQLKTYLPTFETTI
Experimental: as §1, §2, §3

| Hydrolysis percentage by NPP1 [1] | half-life at 0.14 mg/ml [2] | Half-life (t1/2) of hydrolysis at pH 1.4 [3] | half-life [3] | Rate constant of phosphate ester hydrolysis at pH 1.4 [3] | Hydrolysis percentage by NPP3 [4] | Half-life in human blood serum ([2]; human blood serum and RPMI-1640, 37° C.) | SMILES |
| --- | --- | --- | --- | --- | --- | --- | --- |
| 49% and 51% | 11.9 h | 13 days | ~312 h | 6.25×10^−7 s^−1 | 36% |  | COc1cn([C@@H]2O[C@H](COP(=O)(O)OP(=O)(O)O)[C@@H](O)[C@H]2O)c(=O)[nH]c1=O [Analogue 12, 5-methoxyuridine diphosphate] |
| 15% | 17 h |  | 16.9 h |  | 28% |  | [BH3-][P+](O)(OCC1OC(n2cc(OC)c(=O)[nH]c2=O)C(O)C1O)OP(=O)(O)O (single isomer, unassigned) [Analogue 13A, 5-methoxyuridine-5′-O-(α-boranodiphosphate)] |
| 50% |  | ~12 days |  | 6.66×10^−7 s^−1 | 45% | 2.4 h | O=c1ccn([C@@H]2O[C@H](COP(=O)(O)OP(=O)(O)O)[C@@H](O)[C@H]2O)c(=O)[nH]1 [UDP, reference compound] |
